For this assay, the system named is peptide-specific IgG in plasma of prostate cancer patients and healthy donors. Kind of assay: Detection of peptide-specific IgG in plasma by ELISA. Type of assay: binding, human. The conditions noted are these: for IgG reactive to peptide in plasma: 1:100-diluted plasma. A general note: In an ELISA, binding on a coated surface is turned into a signal by an enzyme label.

The mark [1] stands for this setting: Prostate cancer patient 12, A11.
[2] abbreviates: Prostate cancer patient 17, A33.
Where [3] appears, read: Prostate cancer patient 19, A33.
Where [4] appears, read: Prostate cancer patient 20, A33.

With TLRGAVEPDR [PSMA 361-370], the “IgG reactive to peptide in plasma, Total (positive/tested)” value (“IgG reactive … (positive/tested)” below) (Healthy donors) is listed as 0/9 and the “IgG reactive … (positive/tested)” value (Prostate cancer patients) is recorded as 12/20. Moreover, the “IgG reactive to peptide in plasma” value is given as “+ (IgG reactive to a corresponding peptide was judged to be positive when a difference of the optical density (OD) in a 1:100-diluted plasma was more than 100)” (Prostate cancer patient 2, A31); “+ (IgG reactive to a corresponding peptide was judged to be positive when a difference of the optical density (OD) in a 1:100-diluted plasma was more than 100)” (Prostate cancer patient 4, A31); “+ (IgG reactive to a corresponding peptide was judged to be positive when a difference of the optical density (OD) in a 1:100-diluted plasma was more than 100)” (Prostate cancer patient 6, A31); “+ (IgG reactive to a corresponding peptide was judged to be positive when a difference of the optical density (OD) in a 1:100-diluted plasma was more than 100)” (Prostate cancer patient 7, A11); “+ (IgG reactive to a corresponding peptide was judged to be positive when a difference of the optical density (OD) in a 1:100-diluted plasma was more than 100)” (Prostate cancer patient 8, A11); “+ (IgG reactive to a corresponding peptide was judged to be positive when a difference of the optical density (OD) in a 1:100-diluted plasma was more than 100)” (Prostate cancer patient 9, A11). The “IgG reactive to peptide in plasma” value is listed as “+ (IgG reactive to a corresponding peptide was judged to be positive when a difference of the optical density (OD) in a 1:100-diluted plasma was more than 100)” under setting [1]; “+ (IgG reactive to a corresponding peptide was judged to be positive when a difference of the optical density (OD) in a 1:100-diluted plasma was more than 100)” (Prostate cancer patient 14, A33); “+ (IgG reactive to a corresponding peptide was judged to be positive when a difference of the optical density (OD) in a 1:100-diluted plasma was more than 100)” under setting [2]; “+ (IgG reactive to a corresponding peptide was judged to be positive when a difference of the optical density (OD) in a 1:100-diluted plasma was more than 100)” (Prostate cancer patient 18, A33); “+ (IgG reactive to a corresponding peptide was judged to be positive when a difference of the optical density (OD) in a 1:100-diluted plasma was more than 100)” under setting [3]; “+ (IgG reactive to a corresponding peptide was judged to be positive when a difference of the optical density (OD) in a 1:100-diluted plasma was more than 100)” under setting [4].
As to “VIARYGKVFR (PSMA 201-210) [PSMA-derived peptide]”, the “IgG reactive … (positive/tested)” value by setting is: (Healthy donors) 0/9; (Prostate cancer patients) 7/20. Also, the “IgG reactive to peptide in plasma” value by setting is: (Prostate cancer patient 4, A31) “+ (IgG reactive to a corresponding peptide was judged to be positive when a difference of the optical density (OD) in a 1:100-diluted plasma was more than 100)”; (Prostate cancer patient 6, A31) “+ (IgG reactive to a corresponding peptide was judged to be positive when a difference of the optical density (OD) in a 1:100-diluted plasma was more than 100)”; (Prostate cancer patient 9, A11) “+ (IgG reactive to a corresponding peptide was judged to be positive when a difference of the optical density (OD) in a 1:100-diluted plasma was more than 100)”; under setting [1], “+ (IgG reactive to a corresponding peptide was judged to be positive when a difference of the optical density (OD) in a 1:100-diluted plasma was more than 100)”; (Prostate cancer patient 16, A33) “+ (IgG reactive to a corresponding peptide was judged to be positive when a difference of the optical density (OD) in a 1:100-diluted plasma was more than 100)”; under setting [2], “+ (IgG reactive to a corresponding peptide was judged to be positive when a difference of the optical density (OD) in a 1:100-diluted plasma was more than 100)”. In addition, the “IgG reactive to peptide in plasma” value under setting [3] was “+ (IgG reactive to a corresponding peptide was judged to be positive when a difference of the optical density (OD) in a 1:100-diluted plasma was more than 100)” and the “IgG reactive to peptide in plasma” value under setting [4] is “+ (IgG reactive to a corresponding peptide was judged to be positive when a difference of the optical density (OD) in a 1:100-diluted plasma was more than 100)”.

Values taken from US20100184699A1, “Peptide Derived From Prostate-Related Protein As Cancer Vaccine Candidate For Prostate Cancer Patient Who Is Positive For Hla-A3 Super-Type Allele Molecule” (priority 2005, published 2010).
